Results as given in patent US5444151A, “Platelet derived growth factor antagonists” (Ludwig Institute for Cancer Research, priority 1992, dated 1995).
Entries after “also recorded” stand apart in the source; their conditions may differ. Where two headings read alike, the source gives them in different places. Numbered stars: 1 amine (or outer) side, 2 acyl side, 3 side chain; on linkers, the order of the positions; unused ones are H or OH. Square brackets hold non-standard residues; d marks the D form. Ends that are not written are not given here. Peptide text beside a SMILES is read from it. X2 = O=C([C@H](Cc1c(Sc2ccccc2[N+](=O)[O-])[nH]c2ccccc12)N[*:1])[*:2]

Key:
[1] = molecular target: T1, PDGF-β receptor (Homo sapiens, UniProt P09619); assay: Competition with 125I-PDGF-BB for binding to AG1518 fibroblasts (α receptor down regulated by PDGF-AA preincubation)
T1 construct: cultures of human foreskin fibroblast cell line AG1518; endogenous in cells; host or cells: AG1518 human foreskin fibroblasts (Human Mutant Cell Repository)
Method: (§1) In order to test for receptor binding, cultures of human foreskin fibroblast cell line AG1518 (obtained from the Human Mutant Cell Repository), were grown to confluence in Ham's F-12 medium containing 10% newborn calf serum. Those cells which were to be used in analysis of PDGF-β receptor binding were preincubated for 60 minutes at 37° C. in 0.5 ml/well of Ham's F-12 medium, supplemented with 1 mg/ml of bovine serum albumin (BSA), and 50 ng/ml of PDGF-AA. This combination down regulates PDGF-α receptor, as per Claesson-Welsh et al., J. Biol. Chem. 264: 1742-1747 (1989).
(§2) Cells were prepared for receptor binding analyses by washing with ice cold binding buffer (phosphate buffered saline with 0.9 mM CaCl2, 0.49 mM MgSO4 and 1 mg/ml BSA). The cells were then incubated on ice for 90 minutes with different concentrations (0-100 ug/ml) of synthetic peptides (listed in Table 1, infra), in 0.5 ml of binding buffer per well. […] The labelled ligand was added and then incubated for 60 minutes at 0° C. after which the cells were washed five times with ice cold binding buffer. The washed cells were then lysed for 60 minutes at room temperature in a lysis buffer (1% Triton X-100, 10% glycerol, 20 mM Tris-HCl, pH 7.5). Solubilized radioactivity was determined in a gamma counter. Competing activities of synthetic peptides were compared to standard curves, using unlabelled ligand.
In Table 2, "+++" means <30 μM; "++" from 30-60 μM; "+" 60-150 μM; and "-", >150 μM.

[2] = molecular target: T2, PDGF-α receptor (Homo sapiens, UniProt P16234); assay: Competition with 125I-PDGF-AA for binding to AG1518 fibroblasts; details: for Receptor competing activity, PDGF-AA binding (in words): AG1518 cells
T2 construct: cultures of human foreskin fibroblast cell line AG1518; endogenous in cells; host or cells: AG1518 human foreskin fibroblasts
Method: as §1, §2

[3] = molecular target: T3, EGF receptor (Homo sapiens, UniProt P00533); assay: Competition with 125I-EGF for binding to AG1518 fibroblasts
T3 construct: cultures of human foreskin fibroblast cell line AG1518; endogenous in cells; host or cells: human foreskin fibroblasts (AG1518)
Method: as §1, §2

[4] = system: human foreskin fibroblasts; assay: Ligand stimulated [3H]thymidine incorporation; assay type: cell-based; details: for Effect on ligand stimulated [3H]thymidine incorporation (in words): PDGF-AA, PDGF-BB or EGF stimulation; for [3H]thymidine incorporation, Control / [3H]thymidine incorporation, EGF / [3H]thymidine incorporation, PDGF-AA / [3H]thymidine incorporation, PDGF-BB: peptide present; for [3H]thymidine incorporation, Control: no ligand; for [3H]thymidine incorporation, Control / [3H]thymidine incorporation, EGF / [3H]thymidine incorporation, PDGF-AA / [3H]thymidine incorporation, PDGF-BB / [3H]thymidine incorporation, ligand alone: mean of duplicates; for [3H]thymidine incorporation, EGF: stimulated with EGF; for [3H]thymidine incorporation, PDGF-AA: stimulated with PDGF-AA; for [3H]thymidine incorporation, PDGF-BB: stimulated with PDGF-BB; for [3H]thymidine incorporation, ligand alone: no peptide (unstimulated control 483 cpm)
Source text: The possible role of peptide 16T as an antagonist for PDGF activity in vivo was investigated. Following the methodology of Betsholtz et al., J. Cell Physiol 118: 203-210 (1984), the disclosure of which is incorporated by reference, [^3 H] thymidine incorporation by human fibroblasts in the presence of various peptides was studied.

[5] = system: PDGF receptors; assay: PDGF-BB induced receptor dimerization and autophosphorylation in intact cells; assay type: cell-based, human; details: PDGF-BB 300 ng/ml, intact fibroblasts
Method: (§3) Confluent human foreskin fibroblast cells were used (25 cm^2 dishes of cultures). The cells were washed twice with binding buffer, as described supra, with 1 mg/ml BSA added thereto. This was followed by 90 minutes of incubation with one of synthetic peptides 16, […], 20 and […] on ice. […] A dimerization assay was then carried out, basically following Eriksson et al., Growth Factors 6: 1-14 (1992). Essentially, receptors were cross linked for 20 minutes at room temperature in 1 mM BS^3 (Bis(sulfosuccinimidyl)suberate) in lysis buffer (0.5% Triton X-100, 0.5% deoxycholate, […], pH 7.4, 150 mM NaCl, 10 mM EDTA, 1 mM PMSF (phenylmethylsulfonyl fluoride), 1% Trasylol (aprotinin), 100 μM ortovandat, a phosphatase inhibitor). Cross linking was quenched by adding 70 mM methylammonium chloride for 10 minutes. Samples were then subjected to SDS gel electrophoresis in 4% slab gels, followed by electroblotting on to nitrocellulose membranes. The blocked membranes were incubated for two hours with affinity purified phosphotyrosine antibodies (Ek et al., J. Biol. Chem. 259: 1145-11152 (1984)), followed by three washes. Blots were then incubated for 45 minutes with peroxidase conjugated, affinity purified swine antirabbit IgG immunoglobulin. After an additional three washes, complexes were visualized using the ECL developing system.

[6] = molecular target: T3, EGF receptor; assay: EGF induced receptor dimerization and autophosphorylation in intact cells; assay type: cell-based; details: EGF 300 ng/ml, intact fibroblasts
Method: as §3

[7] = molecular target: T4, PDGF-β receptor (Sus scrofa, UniProt A0A8W4FFG6); assay: Autophosphorylation and dimerization of partially purified PDGF-β receptor; assay type: biochemical, porcine
T4 construct: from Triton X-100 solubilized porcine uterus membranes and purified up to the Mono-Q chromatography step; from tissue; host or cells: porcine uterus membranes
Method: A preparation of PDGF-β receptor, from Triton X-100 solubilized porcine uterus membranes and purified up to the Mono-Q chromatography step of Ronnstrand et al., J. Biol. Chem. 262: 2929-2932 (1987), was made, and the autophosphorylation assay described therein was carried out.
Approximately 100 ng of the receptor was incubated for 5 minutes at 0° C. with peptide 16T or peptide 20, at different concentrations. […] Four ul of 150 μM [^32 P]ATP (containing 5×10^6 cpm of radioactivity) was added, followed by an additional 10 minutes of incubation at 0° C. Incorporation of radioactivity was terminated by adding 5 μl of 15 mM unlabelled ATP and 5 μl of 40 mM phenylphosphate. Samples were cross linked by incubating with 0.5 mM DSS (12.5 mM, in dimethyl sulfoxide) for 30 minutes at room temperature. The cross linking reaction was blocked by adding 50 mM methylammonium chloride, 20 mM Hepes, pH 7.4.

[8] = AG1518 cells, 0° C., asterisk = homogeneous peptide, otherwise crude
[9] = AG1518 cells, competing activity
[10] = read-out: Inhibitory Activity: ability to compete with PDGF-BB for binding (peptide needed to decrease binding by 50%), AG1518 cells, 0° C., asterisk = homogeneous peptide, otherwise crude

T1 sequence (P09619 33-1106): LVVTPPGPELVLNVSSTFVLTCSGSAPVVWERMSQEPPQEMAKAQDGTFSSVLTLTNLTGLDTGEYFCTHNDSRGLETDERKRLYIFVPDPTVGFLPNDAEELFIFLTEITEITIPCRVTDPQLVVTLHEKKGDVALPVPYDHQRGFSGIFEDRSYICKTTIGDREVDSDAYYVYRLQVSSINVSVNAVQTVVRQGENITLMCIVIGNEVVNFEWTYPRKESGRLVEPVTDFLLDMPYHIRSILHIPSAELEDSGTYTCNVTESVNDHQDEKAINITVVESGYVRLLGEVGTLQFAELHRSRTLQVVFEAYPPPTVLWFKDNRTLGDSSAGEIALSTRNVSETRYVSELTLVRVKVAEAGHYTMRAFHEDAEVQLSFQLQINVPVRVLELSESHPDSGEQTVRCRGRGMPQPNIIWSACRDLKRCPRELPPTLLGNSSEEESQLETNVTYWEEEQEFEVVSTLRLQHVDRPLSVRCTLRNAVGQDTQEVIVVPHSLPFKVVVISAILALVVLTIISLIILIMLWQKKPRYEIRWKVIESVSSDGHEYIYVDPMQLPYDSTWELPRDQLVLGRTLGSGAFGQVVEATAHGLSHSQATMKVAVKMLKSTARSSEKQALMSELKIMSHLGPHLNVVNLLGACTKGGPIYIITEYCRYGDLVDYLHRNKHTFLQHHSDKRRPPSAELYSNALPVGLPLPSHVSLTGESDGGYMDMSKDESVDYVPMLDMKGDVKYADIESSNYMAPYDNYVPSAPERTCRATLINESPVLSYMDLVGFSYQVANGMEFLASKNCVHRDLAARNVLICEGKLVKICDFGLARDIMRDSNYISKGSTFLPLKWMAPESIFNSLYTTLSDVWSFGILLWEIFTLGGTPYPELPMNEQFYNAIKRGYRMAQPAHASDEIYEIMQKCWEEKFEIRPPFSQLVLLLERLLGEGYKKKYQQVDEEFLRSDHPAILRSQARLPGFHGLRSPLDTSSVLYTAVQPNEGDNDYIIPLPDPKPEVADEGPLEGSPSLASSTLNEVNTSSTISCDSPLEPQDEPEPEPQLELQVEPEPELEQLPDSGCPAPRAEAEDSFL
T2 sequence (P16234 24-1089): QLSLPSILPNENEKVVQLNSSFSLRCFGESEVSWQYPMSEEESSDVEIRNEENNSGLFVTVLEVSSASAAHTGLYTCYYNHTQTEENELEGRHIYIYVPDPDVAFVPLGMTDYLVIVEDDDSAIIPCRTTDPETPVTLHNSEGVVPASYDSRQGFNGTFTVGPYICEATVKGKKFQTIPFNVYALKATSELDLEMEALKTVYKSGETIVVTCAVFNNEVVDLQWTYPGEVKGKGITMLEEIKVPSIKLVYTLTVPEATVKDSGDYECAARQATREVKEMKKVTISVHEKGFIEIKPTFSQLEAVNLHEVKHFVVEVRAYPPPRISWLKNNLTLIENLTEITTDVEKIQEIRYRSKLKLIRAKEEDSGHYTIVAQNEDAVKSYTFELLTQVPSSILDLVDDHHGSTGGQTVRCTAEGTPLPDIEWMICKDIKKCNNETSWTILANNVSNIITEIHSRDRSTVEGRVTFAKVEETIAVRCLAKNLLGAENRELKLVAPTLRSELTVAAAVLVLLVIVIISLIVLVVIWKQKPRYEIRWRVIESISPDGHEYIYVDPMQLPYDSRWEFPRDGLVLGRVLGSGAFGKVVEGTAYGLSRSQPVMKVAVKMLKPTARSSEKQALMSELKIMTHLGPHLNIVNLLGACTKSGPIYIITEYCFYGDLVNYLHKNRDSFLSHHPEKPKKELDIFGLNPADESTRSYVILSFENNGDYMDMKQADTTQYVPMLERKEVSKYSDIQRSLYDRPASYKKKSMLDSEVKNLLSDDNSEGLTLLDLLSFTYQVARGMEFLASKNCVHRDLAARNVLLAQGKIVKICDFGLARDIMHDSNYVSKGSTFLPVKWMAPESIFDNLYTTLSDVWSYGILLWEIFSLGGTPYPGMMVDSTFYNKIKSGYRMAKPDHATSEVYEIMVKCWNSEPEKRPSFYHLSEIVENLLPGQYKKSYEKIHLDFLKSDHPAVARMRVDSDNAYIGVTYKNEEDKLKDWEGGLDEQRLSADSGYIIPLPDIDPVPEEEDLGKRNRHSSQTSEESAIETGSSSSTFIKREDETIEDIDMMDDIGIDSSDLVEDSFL
T3 sequence (P00533 25-1210): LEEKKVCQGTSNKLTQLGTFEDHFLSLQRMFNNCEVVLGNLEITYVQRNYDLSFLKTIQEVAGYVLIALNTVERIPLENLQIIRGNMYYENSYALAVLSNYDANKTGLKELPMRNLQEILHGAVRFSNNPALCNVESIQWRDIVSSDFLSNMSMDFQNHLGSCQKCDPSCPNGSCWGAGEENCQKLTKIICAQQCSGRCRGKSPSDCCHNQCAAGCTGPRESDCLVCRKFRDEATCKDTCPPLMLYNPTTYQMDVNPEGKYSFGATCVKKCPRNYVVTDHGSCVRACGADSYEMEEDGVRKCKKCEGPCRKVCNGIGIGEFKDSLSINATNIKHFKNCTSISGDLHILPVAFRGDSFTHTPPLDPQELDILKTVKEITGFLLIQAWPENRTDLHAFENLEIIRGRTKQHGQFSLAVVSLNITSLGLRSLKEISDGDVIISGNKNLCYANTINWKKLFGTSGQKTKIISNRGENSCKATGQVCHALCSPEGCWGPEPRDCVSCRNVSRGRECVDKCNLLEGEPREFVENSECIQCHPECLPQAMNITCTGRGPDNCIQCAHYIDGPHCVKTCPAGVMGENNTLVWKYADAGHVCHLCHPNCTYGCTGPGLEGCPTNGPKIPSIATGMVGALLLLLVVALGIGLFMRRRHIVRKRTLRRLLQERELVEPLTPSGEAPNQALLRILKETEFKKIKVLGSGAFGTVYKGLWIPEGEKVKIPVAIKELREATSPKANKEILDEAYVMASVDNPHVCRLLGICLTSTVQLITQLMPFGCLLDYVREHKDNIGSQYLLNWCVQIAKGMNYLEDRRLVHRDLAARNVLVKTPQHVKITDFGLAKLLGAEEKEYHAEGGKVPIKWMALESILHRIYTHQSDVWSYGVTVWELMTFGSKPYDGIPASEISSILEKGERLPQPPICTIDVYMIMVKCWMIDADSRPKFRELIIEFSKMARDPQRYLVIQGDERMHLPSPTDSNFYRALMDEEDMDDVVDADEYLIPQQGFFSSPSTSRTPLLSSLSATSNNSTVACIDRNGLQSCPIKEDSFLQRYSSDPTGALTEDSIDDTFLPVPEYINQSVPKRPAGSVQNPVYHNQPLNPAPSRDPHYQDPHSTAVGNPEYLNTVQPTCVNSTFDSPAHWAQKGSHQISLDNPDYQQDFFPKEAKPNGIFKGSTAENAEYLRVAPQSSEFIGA
T4 sequence (A0A8W4FFG6 32-1102): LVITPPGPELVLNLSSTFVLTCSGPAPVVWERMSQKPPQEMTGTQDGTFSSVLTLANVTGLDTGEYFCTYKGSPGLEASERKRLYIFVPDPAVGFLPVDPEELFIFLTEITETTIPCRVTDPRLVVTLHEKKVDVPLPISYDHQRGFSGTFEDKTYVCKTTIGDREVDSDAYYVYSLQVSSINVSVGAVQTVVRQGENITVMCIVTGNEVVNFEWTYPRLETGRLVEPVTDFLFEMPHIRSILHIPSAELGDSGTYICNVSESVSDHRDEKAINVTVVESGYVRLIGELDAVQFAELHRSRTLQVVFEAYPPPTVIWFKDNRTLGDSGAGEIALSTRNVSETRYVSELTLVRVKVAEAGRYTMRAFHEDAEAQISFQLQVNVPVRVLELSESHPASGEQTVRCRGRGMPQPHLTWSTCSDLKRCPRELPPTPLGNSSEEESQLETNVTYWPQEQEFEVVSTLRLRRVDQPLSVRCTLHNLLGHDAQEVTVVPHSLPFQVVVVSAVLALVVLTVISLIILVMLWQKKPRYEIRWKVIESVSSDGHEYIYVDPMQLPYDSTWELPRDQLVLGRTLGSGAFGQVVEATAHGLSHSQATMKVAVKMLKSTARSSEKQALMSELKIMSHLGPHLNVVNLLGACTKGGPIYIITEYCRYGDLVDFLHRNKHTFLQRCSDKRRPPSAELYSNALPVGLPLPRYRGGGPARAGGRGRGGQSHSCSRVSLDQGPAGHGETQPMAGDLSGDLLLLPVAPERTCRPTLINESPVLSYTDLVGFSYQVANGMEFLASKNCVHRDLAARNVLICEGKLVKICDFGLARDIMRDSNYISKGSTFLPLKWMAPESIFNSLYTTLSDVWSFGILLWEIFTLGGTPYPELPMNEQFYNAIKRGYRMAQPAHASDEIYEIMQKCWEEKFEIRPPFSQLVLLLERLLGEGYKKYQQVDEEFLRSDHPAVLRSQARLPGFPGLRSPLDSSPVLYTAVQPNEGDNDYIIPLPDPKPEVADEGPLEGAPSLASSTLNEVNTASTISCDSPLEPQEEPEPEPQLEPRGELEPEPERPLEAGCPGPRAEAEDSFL

## CC[C@H](C)[C@H](NC(=O)[C@H](CCC(=O)O)NC(=O)[C@H](Cc1c(Sc2ccccc2[N+](=O)[O-])[nH]c2ccccc12)NC(=O)[C@@H](NC(=O)[C@H](CC(C)C)NC(=O)[C@H](Cc1ccccc1)NC(=O)[C@H](CC(N)=O)NC(=O)[C@H](C)N)C(C)C)C(=O)N[C@H](C(=O)N[C@@H](CCCNC(=N)N)C(=O)N[C@@H](CCCCN)C(=O)N[C@@H](CCCCN)C(=O)N1CCC[C@H]1C(=O)O)C(C)C [*16NPS] (H-ANFLV[X2]EIVRKKP-OH; N-terminus and C-terminus assumed)
[1]; [8]
  IC50: < 30 µM
[1]; AG1518 cells, general text statements on competing activity placed here, listed as 16 NPS
  Receptor competing activity, PDGF-BB binding (in words): more active as an antagonist than peptide 16
[1]; AG1518 cells, general text statements on competing activity placed here, listed as 16NPS
  Receptor competing activity, PDGF-BB binding (in words): increased activity as an antagonist

## CC[C@H](C)[C@H](NC(=O)[C@H](Cc1ccccc1)NC(=O)[C@H](C)NC(=O)[C@@H](N)CCC(=O)O)C(=O)N[C@@H](CCCCN)C(=O)N[C@@H](Cc1c(-c2ccc(SC)cc2)[nH]c2ccccc12)C(=O)N[C@@H](CC(C)C)C(=O)N[C@H](C(=O)N[C@@H](CCCNC(=N)N)C(=O)N[C@@H](CC(N)=O)C(=O)N[C@@H](CCCCN)C(=O)N[C@H](C(=O)N1CCC[C@H]1C(=O)O)C(C)C)C(C)C [*20T, reference compound]
[1]; [9]
  Receptor competing activity, PDGF-BB binding (in words): did not compete for binding
[2]
  Receptor competing activity, PDGF-AA binding (in words): did not compete for binding
[3]
  Competition for binding of 125I-EGF to the EGF receptor (in words): none of peptides 16, 16T, 20 and 20T compete
[4]
  Effect on ligand stimulated [3H]thymidine incorporation (in words): some non specific inhibition activity
  [3H]thymidine incorporation, Control: 456 cpm
  [3H]thymidine incorporation, EGF: 515 cpm
  [3H]thymidine incorporation, PDGF-AA: 489 cpm
  [3H]thymidine incorporation, PDGF-BB: 836 cpm
[5]
  Effect on PDGF induced autophosphorylation and dimerization (in words): no effect whatsoever
[6]
  Effect on EGF induced autophosphorylation and dimerization (in words): no effect whatsoever

## ANFLVWEIVRKKP [Peptide 16]
[1]; [8]
  IC50: < 30 µM
[1]; [9]
  Receptor competing activity, PDGF-BB binding (in words): maintained most of the receptor competing activity; also recorded: marginal effect
[2]
  Receptor competing activity, PDGF-AA binding (in words): marginal effect
[2]; listed as 16*
  Receptor competing activity, PDGF-AA binding (in words): very low activity
[3]
  Competition for binding of 125I-EGF to the EGF receptor (in words): none of peptides 16, 16T, 20 and 20T compete
[4]
  Effect on ligand stimulated [3H]thymidine incorporation (in words): did inhibit PDGF-AA and PDGF-BB induced mitogenicity, but also EGF induced mitogenicity
  [3H]thymidine incorporation, Control: 241 cpm
  [3H]thymidine incorporation, EGF: 216 cpm
  [3H]thymidine incorporation, PDGF-AA: 242 cpm
  [3H]thymidine incorporation, PDGF-BB: 281 cpm
[7]; nearly complete for 16T, complete for 16, about 100 ng receptor, 100 ng PDGF-BB, 40 ul
  Amount of peptide giving complete inhibition of dimerization and autophosphorylation: 20 µg
[7]; peptide 20: concentrations up to 20 μg
  Effect on dimerization and autophosphorylation (in words): intermediate effect

## ANFLVWPPCVEVQLRPVQVRKIEIVRKKP [Peptide 7]
[1]; [10]
  IC50: < 30 µM
[1]; β receptor, read-out: 50% competition for receptor binding
  IC50: ~6 µM
[2]; α receptor, read-out: 50% competition for receptor binding
  IC50: ~6 µM

## CRPTQVQLRPVQVRKIEIVRKKP [Peptide 2]
[1]; [10]
  IC50: > 150 µM

## EAFIKWLVRNKVP [*20, reference compound]
[1]; [8]
  IC50: > 150 µM

## EGF: ligand of the EGF receptor, used as control growth factor
[4]
  [3H]thymidine incorporation, ligand alone: 2591 cpm

## KIEIVRKKPIFKKATVTLEDHLASKC [Peptide 1]
[1]; [10]
  IC50: > 150 µM

## PDGF-AA: platelet derived growth factor A chain homodimer
[4]
  [3H]thymidine incorporation, ligand alone: 677 cpm
[4]; no peptide, versus unstimulated control
  Stimulation of [3H]thymidine incorporation by ligand: lower stimulation

## WPPCVEVQLRPVQVRKIEIVRKKP [Peptide 8]
[1]; [9]
  Receptor competing activity, PDGF-BB binding (in words): nearly devoid of activity
[1]; [10]
  IC50: > 150 µM
